According to patent publication US20190375778A1, “ADENOSINE DERIVATIVES FOR USE IN THE TREATMENT OF CANCER” (NuCana plc, priority 2016, published 2019):

What was measured:
PC3 = test: MTT cytotoxicity assay, PC3; type: cell-based; settings: Homo sapiens, PC-3, 96 h compound exposure, read-out: absolute IC50, PC3
Text: (§1) Lovo: cell line derived from a metastatic site in a patient with colon cancer MCF7: human oestrogen sensitive mammary epithelial cell line PC3: human prostate cancer cell line A549: cancerous lung tissue derived cells L1210: lymphoblast cell line derived from a mouse with lymphocytic leukaemia FM3A: mammary carcinoma murine cells CEM: human T-lymphoblasts, derived from the blood of a patient with acute lymphoblastic leukaemia HeLa: epithelial cells from a patient with cervical adenocarcinoma
(§2) Anti-tumour evaluation in MCF7, LoVo, A549 and PC3 cell lines was performed by MTT assay. Compounds were prepared as 0.1-100 mM stock solutions dissolved in DMSO and stored at −20° C. Cells were seeded into 96-well microtitre plates at a density of 5×10^3 cells per well and allowed 24 hours to adhere. Decimal compound dilutions were prepared in medium immediately prior to each assay (final concentration 0.1-100 μM). Experimental medium was DMEM+10% FCS (PC3 and Lovo) or RPMI+10% heat inactivated FCS (A549 and MCF7). Following 96 h compound exposure at 37° C., 5% CO2, MTT reagent (Sigma Aldrich) was added to each well (final concentration 0.5 mg/ml). Incubation at 37° C. for 4 h allowed reduction of MTT by viable cells to an insoluble formazan product. MTT was removed and formazan solubilised by addition of 10% Triton X-100 in PBS. Absorbance was read on a Tecan Sunrise spectrophotometer at 540 nm as a measure of cell viability; thus inhibition relative to control was determined (IC50).

FM3A = test: Cytotoxicity, FM3A; type: cell-based, murine; settings: Mus musculus, read-out: absolute IC50, FM3A
Text: as §1

human T-lymphocyte CEM = test: Cell proliferation (Coulter count) assay, CEM; type: cell-based; settings: 72 h, read-out: absolute IC50, CEM
Text: as §1
(§3) Murine leukemia L1210, human T-lymphocyte CEM, and human cervix carcinoma HeLa cells were obtained from the American Type Culture Collection (ATCC) (Rockville, Md.). All cells were maintained in Dulbecco's modified Eagle's medium (DMEM) (Invitrogen, Carlsbad, Calif.) with 10% fetal bovine serum (FBS) (Biochrom AG, Berlin, Germany), 10 mM Hepes, and 1 mM sodiumpyruvate (Invitrogen). Cells were grown at 37° C. in a humidified incubator with a gas phase of 5% CO2. Monolayer cells (HeLa and […]) were seeded in 96-well microtiter plates (Nunc, Roskilde, Denmark) at 10 000 cells/well. After 24 h, an equal volume of fresh medium containing the test compounds was added. On day 5, cells were trypsinized and counted in a Coulter counter (Analis, Suarlee, Belgium). Suspension cells (L1210, CEM) were seeded in 96-well microtiter plates (Nunc) at 60 000 cells/well in the presence of a given amount of the test compounds. The cells were allowed to proliferate for 48 h (L1210) or 72 h (CEM) and were then counted in a Coulter counter. The 50% inhibitory concentration (IC50) was defined as the compound concentration required to reduce cell proliferation by 50%. The cytostatic activity of the compounds was determined after 3 days, as outlined above.

A549 = test: MTT cytotoxicity assay, A549; type: cell-based; settings: Homo sapiens, 96 h compound exposure, read-out: absolute IC50, A549
Text: as §1, §2

Murine leukemia L1210 = test: Cell proliferation (Coulter count) assay, L1210; type: cell-based; settings: Mus musculus, 48 h, read-out: absolute IC50, L1210
Text: as §1, §3

[1] = test system: human cervix carcinoma HeLa cells; test: Cell proliferation (Coulter count) assay, HeLa; type: cell-based; settings: 120 h, cell count on day 5, read-out: absolute IC50, HeLa
Text: as §1, §3

MCF7 = test: MTT cytotoxicity assay, MCF7; type: cell-based; settings: Homo sapiens, 96 h compound exposure, read-out: absolute IC50, MCF7
Text: as §1, §2

Lovo = test: MTT cytotoxicity assay, Lovo; type: cell-based; settings: Homo sapiens, 96 h compound exposure, read-out: absolute IC50, Lovo
Text: as §1, §2

[2] = test system: KG1a leukaemic stem cell compartment (Lin−/CD34+/CD38−/CD123+); test: Leukaemic stem cell compartment in KG1a; type: cell-based
Description: (§4) A further comparative analysis of the toxicity of compounds in the KG1a cell line over an extended dose range was carried out, and the relative effect assessed of the compounds on the leukaemic stem cell compartment within the KG1a cell line, across the entire dose range. Thus, experimental tests were performed on certain compounds of the present invention to assess their ability to target cancer stem cells in a leukaemic cell line. The acute myeloid leukaemia (AML) cell line, KG1a, was employed to assess the relative effect of compounds on the stem cell compartment. The KG1a cell line was selected because it manifests a minor stem cell-like compartment with a distinct immunophenotype (Lin^−/CD34^+/CD38^−/CD123^+).
(§5) Cells of the KG1a cell line were maintained in RPMI medium (Invitrogen, Paisley, UK) supplemented with 100 units/ml penicillin, 100 μg/ml streptomycin and 20% foetal calf serum. Cells were subsequently aliquoted (10^5 cells/100 μl) into 96-well plates and were incubated at 37° C. in a humidified 5% carbon dioxide atmosphere for 72 hrs in the presence of nucleoside analogues and their respective nucleotide analogues (known as ProTides) at concentrations that were experimentally determined for each series of compounds. In addition, control cultures were carried out to which no drug was added. Cells were subsequently harvested by centrifugation and were analyzed by flow cytometry using the Annexin V assay.
KG1a cells were cultured for 72 hrs in the presence of a wide range of concentrations of each compound assayed. Cells were then harvested and labelled with a cocktail of anti-lineage antibodies (PE-cy7), anti-CD34 (FITC), anti-CD38 (PE) and anti-CD123 (PERCP cy5). The sub-population expressing a leukaemic stem cell (LSC) phenotype were subsequently identified and were expressed as a percentage of all viable cells left in the culture. The percentages of stem cells remaining were then plotted on a dose-response graph and the effects of the compounds were compared with 8-chloroadenosine.
(§6) The data obtained in these experiments were evaluated using one way ANOVA. All data was confirmed as Gaussian or a Gaussian approximation using the omnibus K2 test. LD50 values were calculated from the non-linear regression and line of best-fit analysis of the sigmoidal dose-response curves. All statistical analyses were performed using Graphpad Prism 6.0 software (Graphpad Software Inc., San Diego, Calif.).

KG1a cell line = test: Annexin V/propidium iodide cytotoxicity, KG1a unsorted; type: cell-based
Description: as §4, §5
Cultured cells were harvested by centrifugation and then resuspended in 195 μl of calcium-rich buffer. Subsequently, 5 μl of Annexin V (Caltag Medsystems, Botolph Claydon, UK) was added to the cell suspension and cells were incubated in the dark for 10 mins prior to washing. Cells were finally resuspended in 190 μl of calcium-rich buffer together with 10 μl of propidium iodide. Apoptosis was assessed by dual-colour immunofluorescent flow cytometry as described previously. Subsequently LD50 values (the dose required to kill 50% of the cells in a culture) were calculated for each nucleoside analogue and ProTide.
as §6

HL-60 = test: CellTiterGlo viability assay, HL-60; type: cell-based; settings: Homo sapiens, HL-60, 72 h, read-out: IC50 HL-60
Description: (§7) In vitro viability assay were performed to assess the effects of compounds on cell viability in selected cell lines over ˜72 hrs using the CellTiterGlo (CTG, Promega-G7573) assay. The tests were performed in duplicates with treatment of compounds at 9 points, 3.16 folds titration in 96 well plates over ˜72 hrs. The compound starting concentrations were 198 μM. Cell viability assay using CellTiterGlo in 96-well plate were performed. Compound treatment 72 hrs, standard growth conditions, duplicates. Compounds were dissolved to 40 mM with thawed […]. Compounds were serially diluted at 3.16 fold in thawed DMSO, and warmed to 37° C. before being dissolved in media (2 μl+200 μl). After compounds were dissolved in media, media containing compounds were warmed to 37° C. in incubator and then compounds in media were added to cell plates (50 μl+50 μl) in duplicates. The compounds' final concentrations were from […] to 19.9 nM. All compound solubilities were checked and recorded again, then the plates were transferred to CO2 tissue culture incubator immediately and incubated for 3 days. DMSO final concentration is 0.5%.

CCRFCEM = test: CellTiterGlo viability assay, CCRFCEM; type: cell-based; settings: Homo sapiens, CCRF-CEM, 72 h, read-out: IC50 CCRFCEM
Description: as §7

HEL92.1.7 = test: CellTiterGlo viability assay, HEL92.1.7; type: cell-based; settings: Homo sapiens, HEL 92.1.7, 72 h, read-out: IC50 HEL92.1.7
Description: as §7

RL = test: CellTiterGlo viability assay, RL; type: cell-based; settings: Homo sapiens, RL, 72 h, read-out: IC50 RL
Description: as §7

RPMI-8226 = test: CellTiterGlo viability assay, RPMI-8226; type: cell-based, Human; settings: Homo sapiens, RPMI-8226, 72 h, read-out: IC50 RPMI-8226
Description: as §7

K562 = test: CellTiterGlo viability assay, K562; type: cell-based; settings: Homo sapiens, K562, 72 h, read-out: IC50 K562
Description: as §7

NCI-H929 = test: CellTiterGlo viability assay, NCI-H929; type: cell-based; settings: Homo sapiens, NCI-H929, 72 h, read-out: IC50 NCI-H929
Description: as §7

KG-1 = test: CellTiterGlo viability assay, KG-1; type: cell-based; settings: Homo sapiens, KG-1, 72 h, read-out: IC50 KG-1
Description: as §7

MV4-11 = test: CellTiterGlo viability assay, MV4-11; type: cell-based; settings: Homo sapiens, MV4-11, 72 h, read-out: IC50 MV4-11
Description: as §7

## Nc1ncnc2c1nc(Cl)n2[C@@H]1O[C@H](COP(=O)(N[C@@H](Cc2ccccc2)C(=O)OCc2ccccc2)Oc2ccccc2)C(O)C1O (stereo partly drawn) [U, 5′-([(Benzyloxy-L-phenylalanin-N-yl)-phenyl]-phosphatyl) 8-chloroadenosine]
PC3
  IC50: 0.1 to 5 µM
FM3A
  IC50: 15 to 100 µM
Human T-lymphocyte CEM
  IC50: 5 to 15 µM
A549
  IC50: 0.1 to 5 µM
Murine leukemia L1210
  IC50: 15 to 100 µM
[1]
  IC50: 0.1 to 5 µM
MCF7
  IC50: 0.1 to 5 µM
Lovo
  IC50: 0.1 to 5 µM

## C[C@H](NP(=O)(OC[C@H]1O[C@@H](n2c(Cl)nc3c(N)ncnc32)C(O)C1O)Oc1ccccc1)C(=O)OC1CCCCC1 (stereo partly drawn) [X, 5′-([(Cyclohexyloxy-L-alanin-N-yl)-phenyl]-phosphatyl) 8-chloroadenosine]
PC3
  IC50: 0.1 to 5 µM
A549
  IC50: 15 to 100 µM
MCF7
  IC50: 0.1 to 5 µM
Lovo
  IC50: 0.1 to 5 µM

## Nc1ncnc2c1nc(Cl)n2[C@@H]1O[C@H](COP(=O)(NCC(=O)OCc2ccccc2)Oc2ccccc2)[C@@H](O)[C@H]1O (single isomer, unassigned; isomer a) [Isomer A of Compound B]
[2]; KG1a, compared to 8-chloroadenosine (FIG. 2, FIG. 8)
  targeting of leukaemic/cancer stem cells in words: statistically significantly increased ability to target cancer stem cells
KG1a cell line; KG1a, versus 8-chloroadenosine or other isomers (FIG. 1, FIG. 7)
  cytotoxic potency compared in words: significantly more potent

## C[C@H](NP(=O)(OC[C@H]1O[C@@H](n2cnc3c(N)nc(Cl)nc32)[C@H](F)C1O)Oc1cccc2ccccc12)C(=O)OCc1ccccc1 (some centres unmarked) [Comparative compound 1]
[2]; % LSC compartment versus the series' control
  Change relative to control (%): −0.2%
[2]; LSC as percentage of viable cells left, 72 hrs
  KG-1a (CD34+/CD38−/CD123+) % compartment: 3.3%
KG1a cell line; Homo sapiens, KG-1a, Annexin V/propidium iodide, 72 hrs
  LD50: 140 nM

## Nc1ncnc2c1nc(Cl)n2[C@@H]1O[C@H](COP(=O)(NCC(=O)OCc2ccccc2)Oc2cccc3ccccc23)C(O)C1O (some centres unmarked) [Compound L, 5′-([(benzylo-yl-glycin-N-yl)-naphth-1-yl]-phosphatyl) 8-chloroadenosine]
HL-60
  IC50: 5 to 15 µM
Human T-lymphocyte CEM
  IC50: 0.1 to 5 µM
CCRFCEM
  IC50: 5 to 15 µM
HEL92.1.7
  IC50: 0.1 to 5 µM
RL
  IC50: 5 to 15 µM
Murine leukemia L1210
  IC50: 5 to 15 µM
RPMI-8226
  IC50: 0.1 to 5 µM
K562
  IC50: 5 to 15 µM
[1]
  IC50: 0.1 to 5 µM
NCI-H929
  IC50: 15 to 100 µM
KG-1
  IC50: 5 to 15 µM
MV4-11
  IC50: 0.1 to 5 µM
